pIC50: −log10 of the molar value. Where two headings read alike, the source gives them in different places.
Tests used:
Assay type in all cases: cell-based
IMR-90 = assay: SRB cell proliferation assay, IMR-90; conditions: Homo sapiens, 72 hours, SRB assay, slow cycling cell line, read-out: CELLULAR IC50 IMR-90
Method: (§1) We observed the surprising finding that compounds of the invention were useful in inhibiting proliferation of tumor cell lines (see Table 3).
(§2) Cells were exposed to the test compounds at various concentrations appropriate to determine an IC50 for 72 hours. Cell proliferation was measured using the SRB assay according to Shekan et al (J Natl Cancer Inst (1990) 82, 1107-112) in order to estimate the IC50 values shown in Table 3. Briefly, cells were plated in 96 well dishes 24 hours prior to compound addition at the densities specified in Table 5.1. The assay was terminated with the addition of cold TCA to a final concentration of 10% after growth medium has been removed and the plates were incubated over night at 4°C. The plates were then washed 5 times with water and 100µl of a Sulforhodamine B solution (4%) was added to each well. The plates were then incubated for 10 minutes at room temperature before removal of unbound dye by washing with 1% acetic acid. The bound dye was solubilised with 10 mM Trizma base and the absorbance read at OD520.
(§3) Inhibitory activity of the compounds (IC) was calculated as % inhibition of cell proliferation compared to cells treated with the solvent (DMSO).
(§4) Table 8.1: 18-Cell Line Panel

HCT 116 = assay: SRB cell proliferation assay, HCT 116; conditions: Homo sapiens, 72 hours, SRB assay, read-out: CELLULAR IC50 HCT 116
Method: as §1, §2, §3, §4

Plk1 = Plk1 (Homo sapiens, UniProt P53350); assay: Cellular Plk1 kinase activity: nucleophosmin (B23) Ser4 phosphorylation in HCT116 cells (MSD electrochemiluminescence); set-up: host or cells: HCT116; conditions: 100 ng/ml nocodazole, 4 hours after compound addition, read-out: Biochemical IC50 Nucleophosmin assay
Plk1, sequence (P53350 whole entry, species assumed): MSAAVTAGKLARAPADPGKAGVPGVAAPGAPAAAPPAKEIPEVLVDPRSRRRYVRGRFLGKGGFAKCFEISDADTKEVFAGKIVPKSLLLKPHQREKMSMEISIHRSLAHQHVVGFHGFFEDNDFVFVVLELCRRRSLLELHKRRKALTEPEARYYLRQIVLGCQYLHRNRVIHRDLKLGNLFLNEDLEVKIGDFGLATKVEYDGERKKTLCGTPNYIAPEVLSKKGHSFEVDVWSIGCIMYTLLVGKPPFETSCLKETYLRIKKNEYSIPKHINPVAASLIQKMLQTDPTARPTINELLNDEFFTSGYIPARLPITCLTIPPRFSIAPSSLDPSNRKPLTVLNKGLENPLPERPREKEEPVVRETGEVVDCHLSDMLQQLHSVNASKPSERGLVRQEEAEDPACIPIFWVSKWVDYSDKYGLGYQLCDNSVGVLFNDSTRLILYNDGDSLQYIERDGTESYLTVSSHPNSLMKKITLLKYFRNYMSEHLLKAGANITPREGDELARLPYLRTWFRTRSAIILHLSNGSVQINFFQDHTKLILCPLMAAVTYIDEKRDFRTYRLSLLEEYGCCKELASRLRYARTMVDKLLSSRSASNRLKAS
Method: We observed the surprising finding that compounds of the invention were able to penetrate cell membranes and retained their activity as Plk1 inhibitors against native Plk1 expressed within living cancer cells.
Cellular Plk1 kinase activity was measured by quantification of nucleophosmin (B23) Ser4 phosphorylation in a cancer cell line. Nucleophosmin (B23) Ser4 is phosphorylated by Plk1, and this phosphorylation can be specifically detected by cross-reactivity of a phospho-Mek1/2 antibody that is able to recognizes a mitotic-specific phosphorylated form of nucleophosmin (B23) in a nocodazole dependent way (Zhang, H., Shi, X., Paddon, H., Hampong, M., Dai, W., and Pelech, S. (2004) B23/Nuleophosmin Serin 4 Phosphorylation Mediates Mitotic Functions of Polo-like Kinase 1. J. Biol. Chem., 279(34), 35726-35734).
Briefly, HCT116 cells (ATCC, Order No. CCL-247) were plated in 96 well dishes 24 hours prior to nocodazole treatment at 25 000 cells per well. Cells were then treated with 100 ng/ml nocodazole (Sigma-Aldrich, # M1404). 20 hours after nocodazole treatment, cells were exposed to the test compounds at various concentrations appropriate to determine an IC50. 4 hours after compound addition, medium was carefully removed and 120 µl of Complete Tris Lysis Buffer (R60TX; MSD, Gaithersburg MD) was added to each well. Samples were then stored at -20°C.
The level of nucleophosmin (B23) Ser4 phosphorylation in these cell lysis samples was estimated by electrochemiluminescence detection using the Meso Scale Discovery ("MSD") Technology Platform (MSD, Gaithersburg MD). The protocol used was as recommended by the manufacturer with the use of a phospho-Mek1/2 antibody (Cell Signalling, #9121) as primary antibody, and is as follows.
The cell lysates were thawed at room temperature and 40 µl were incubated on 96-well MULTI-ARRAY High Bind plates (L11XB; MSD) for 1.5 - 2 hours at room temperature. The supernatants were then removed and 150 µl of a 5% (w/v) solution of Blocker A (R93AA; MSD) in Tris Wash Buffer (R61TX; MSD) were added to each well. The plates were then incubated for 1 hour at room temperature before removal of the Blocker A solution and washed 4 times with 200 µl Tris Wash Buffer. 25 µl primary antibody (anti-phospho-MEK1/2, Cell Signalling, #9121, rabbit polyclonal), diluted 1:250 in a 1% (w/v) solution of Blocker A in Tris Wash Buffer, were added to each well. The plates were then incubated for 1 hour at room temperature before removal of the antibody solution and washed 4 times with 200 µl Tris Wash Buffer. Then, 25 µl of labelled secondary antibody (SULFO-TAG Goat Anti-Rabbit IgGAntibody (R32AB; MSD), diluted 1:500 in a 1% (w/v) solution of Blocker A in Tris Wash Buffer) were added to each well. The plates were then incubated for 1 hour at room temperature before removal of the antibody solution and washed 4 times with 200 µl Tris Wash Buffer. Then, […] of 1x Read Buffer T (R92TC; MSD) were carefully added to each well and the plates were quantitatively detected for each well with a SECTOR™ Imager 6000 (MSD).
Inhibitory activity of the compounds (IC) was calculated as % inhibition of nucleophosmin (B23) Ser4 phosphorylation compared to cells not treated with nocodazole.

HT-29 = assay: SRB cell proliferation assay, HT-29; conditions: Homo sapiens, 72 hours, SRB assay, read-out: CELLULAR IC50 HT-29
Method: as §1, §2, §3, §4

pIC50 (HCT 116; HCT-116, 72 h) | pIC50 (Plk1) | pIC50 (HT-29; HT-29, 72 h) | Molecule | pIC50 (IMR-90) | pIC50 (HCT 116; HCT-116) | pIC50 (HT-29; HT-29)
 | > 7.00 |  | 4-(8-Dimethylamino-7-ethyl-5-methyl-6-oxo-5,6,7,8-tetrahydro-pteridin-2-ylamino)-3-methoxy-N-(4-piperidin-1-ylmethyl-phenyl)-benzamide [Compound 10] |  |  | 
> 6.00 | > 7.00 | > 6.00 | CCC1C(=O)N(C)c2cnc(Nc3ccc(C(=O)NC4CCN(C)CC4)cc3OC)nc2N1N(C)CC1CCC1 (stereo not drawn) [Compound 33, 4-[8-(Cyclobutylmethyl-methyl-amino)-7-ethyl-5-methyl-6-oxo-5,6,7,8-tetrahydro-pteridin-2-ylamino]-3-methoxy-N-(1-methyl-piperidin-4-yl)-benzamide] | < 6.00 |  | 
> 6.00 | > 7.00 | > 6.00 | CCC1C(=O)N(C)c2cnc(Nc3ccc(C(=O)NC4CCN(C(C)C)CC4)cc3OC)nc2N1N(C)C (stereo not drawn) [Compound 4, 4-(8-Dimethylamino-7-ethyl-5-methyl-6-oxo-5,6,7,8-tetrahydro-pteridin-2-ylamino)-N-(1-isopropyl-piperidin-4-yl)-3-methoxy-benzamide] | < 6.00 |  | 
 | > 6.30 |  | 4-[8-(Cyclobutylmethyl-methyl-amino)-7-ethyl-5-methyl-6-oxo-5,6,7,8-tetrahydro-pteridin-2-ylamino]-N-[trans-4-(4-cyclopropylmethyl-piperazin-1-yl)-cyclohexyl]-3-methoxy-benzamide [Compound 35] |  |  | 
 | > 7.00 |  | 4-(8-Dimethylamino-7-ethyl-5-methyl-6-oxo-5,6,7,8-tetrahydro-pteridin-2-ylamino)-N-[4-(4-ethyl-piperazin-1-yl)-phenyl]-3-methoxy-benzamide [Compound 9] |  |  | 
 | > 7.00 |  | 4-(8-Dimethylamino-7-ethyl-5-methyl-6-oxo-5,6,7,8-tetrahydro-pteridin-2-ylamino)-3-methoxy-N-[4-(4-methyl-piperazin-1-yl)-phenyl]-benzamide [Compound 8] |  |  | 

The next lines start with the molecule.

Molecule | pIC50 (HCT 116; HCT-116, 72 h) | pIC50 (Plk1) | pIC50 (HT-29; HT-29, 72 h) | pIC50 (IMR-90) | pIC50 (HCT 116; HCT-116) | pIC50 (HT-29; HT-29)
CCC1C(=O)N(C)c2cnc(Nc3ccc(C(=O)N[C@H]4CC[C@H](N5CCN(CC6CC6)CC5)CC4)cc3OC)nc2N1N(C)Cc1ccccc1 (relative stereo) [Compound 16, 4-[8-(Benzyl-methyl-amino)-7-ethyl-5-methyl-6-oxo-5,6,7,8-tetrahydro-pteridin-2-ylamino]-N-[trans-4-(4-cyclopropylmethyl-piperazin-1-yl)-cyclohexyl]-3-methoxy-benzamide] | > 6.00 | > 7.00 | > 6.00 | < 6.00 |  | 
CCCN(C)N1c2nc(Nc3ccc(C(=O)NC4CCN(C)CC4)cc3OC)ncc2N(C)C(=O)C1CC (stereo not drawn) [Compound 20, 4-[7-Ethyl-5-methyl-8-(methyl-propyl-amino)-6-oxo-5,6,7,8-tetrahydro-pteridin-2-ylamino]-3-methoxy-N-(1-methyl-piperidin-4-yl)-benzamide] | > 6.00 | > 7.00 | > 6.00 | < 6.00 |  | 
CCC1C(=O)N(C)c2cnc(Nc3ccc(C(=O)N[C@H]4CC[C@H](N5CCN(CC6CC6)CC5)CC4)cc3OC)nc2N1NC (relative stereo) [Compound 31, N-[trans-4-(4-Cyclopropylmethyl-piperazin-1-yl)-cyclohexyl]-4-(7-ethyl-5-methyl-8-methylamino-6-oxo-5,6,7,8-tetrahydro-pteridin-2-ylamino)-3-methoxy-benzamide] | > 6.00 | > 7.00 | > 6.00 | < 6.00 |  | 
CCC1C(=O)N(C)c2cnc(Nc3ccc(C(=O)NC4CCN(C)CC4)cc3OC)nc2N1N(C)Cc1ccccc1 (stereo not drawn) [Compound 15, 4-[8-(Benzyl-methyl-amino)-7-ethyl-5-methyl-6-oxo-5,6,7,8-tetrahydro-pteridin-2-ylamino]-3-methoxy-N-(1-methyl-piperidin-4-yl)-benzamide] | > 6.00 | > 7.00 | > 6.00 | < 6.00 |  | 
CCC1C(=O)N(C)c2cnc(Nc3ccc(C(=O)NCc4ccc(N5CCN(C)CC5)cc4)cc3OC)nc2N1N(C)C (stereo not drawn) [Compound 11, 4-(8-Dimethylamino-7-ethyl-5-methyl-6-oxo-5,6,7,8-tetrahydro-pteridin-2-ylamino)-3-methoxy-N-[4-(4-methyl-piperazin-1-yl)-benzyl]-benzamide] |  | > 7.00 |  | < 6.00 | > 6.00 | > 6.00
CCC1C(=O)N(C)c2cnc(Nc3ccc(C(=O)NCC4CCN(CC)CC4)cc3OC)nc2N1N(C)CC(C)C (stereo not drawn) [Compound 23, 4-[7-Ethyl-8-(isobutyl-methyl-amino)-5-methyl-6-oxo-5,6,7,8-tetrahydro-pteridin-2-ylamino]-N-(1-ethyl-piperidin-4-ylmethyl)-3-methoxy-benzamide] | > 6.00 | > 7.00 | > 6.00 | < 6.00 |  | 
CCC1C(=O)N(C)c2cnc(Nc3ccc(C(=O)NC4CCN(C)CC4)cc3OC)nc2N1N(C)CC(C)C (stereo not drawn) [Compound 22, 4-[7-Ethyl-8-(isobutyl-methyl-amino)-5-methyl-6-oxo-5,6,7,8-tetrahydro-pteridin-2-ylamino]-3-methoxy-N-(1-methyl-piperidin-4-yl)-benzamide] | > 6.00 | > 7.00 | > 6.00 | < 6.00 |  | 
N-(2-Diethylamino-ethyl)-4-(8-dimethylamino-7-ethyl-5-methyl-6-oxo-5,6,7,8-tetrahydro-pteridin-2-ylamino)-3-methoxy-benzamide [Compound 5] |  | > 7.00 |  |  |  | 
CCC1C(=O)N(C)c2cnc(Nc3ccc(C(=O)NC4CCN(C)CC4)cc3OC)nc2N1N(C)C (single isomer, unassigned) [Compound 37, 4-(8-dimethylamino-7-ethyl-5-methyl-6-oxo-5,6,7,8-tetrahydro-pteridin-2-ylamino)-3-methoxy-N-(1-methyl-piperidin-4-yl)-benzamide] |  | > 7.00 |  |  |  | 
4-(8-Dimethylamino-7-ethyl-5-methyl-6-oxo-5,6,7,8-tetrahydro-pteridin-2-ylamino)-3-methoxy-N-(2-piperidin-1-yl-ethyl)-benzamide [Compound 6] |  | > 7.00 |  |  |  | 
4-[8-(Cyclopentylmethyl-methyl-amino)-7-ethyl-5-methyl-6-oxo-5,6,7,8-tetrahydro-pteridin-2-ylamino]-N-(1-ethylpiperidin-4-ylmethyl)-3-methoxy-benzamide [Compound 29] |  | > 7.00 |  |  |  | 
N-(2-Diisopropylamino-ethyl)-4-(8-dimethylamino-7-ethyl-5-methyl-6-oxo-5,6,7,8-tetrahydro-pteridin-2-ylamino)-3-methoxy-benzamide [Compound 7] |  | > 7.00 |  |  |  | 
